# Laboratory results as given in ChEMBL document CHEMBL1201862, “PubChem BioAssay data set” (2004).
# Activity calls are given as the source filed them.
# Tests used:
# [1] = target: T1, Orexin/Hypocretin receptor type 1 (Homo sapiens, UniProt O43613); experiment: Homogeneous Time Resolved Fluorescence (HTRF)-based cell-based high throughput dose response assay for antagonists of the orexin 1 receptor (OX1R; HCRTR1). [Related pubchem assays (depositor defined):AID434989, AID435008, AID463079, AID485270, AID492963, AID492964, AID492965, AID493232, AID504717, AID504718]; format: functional
# T1 sequence (O43613 whole entry): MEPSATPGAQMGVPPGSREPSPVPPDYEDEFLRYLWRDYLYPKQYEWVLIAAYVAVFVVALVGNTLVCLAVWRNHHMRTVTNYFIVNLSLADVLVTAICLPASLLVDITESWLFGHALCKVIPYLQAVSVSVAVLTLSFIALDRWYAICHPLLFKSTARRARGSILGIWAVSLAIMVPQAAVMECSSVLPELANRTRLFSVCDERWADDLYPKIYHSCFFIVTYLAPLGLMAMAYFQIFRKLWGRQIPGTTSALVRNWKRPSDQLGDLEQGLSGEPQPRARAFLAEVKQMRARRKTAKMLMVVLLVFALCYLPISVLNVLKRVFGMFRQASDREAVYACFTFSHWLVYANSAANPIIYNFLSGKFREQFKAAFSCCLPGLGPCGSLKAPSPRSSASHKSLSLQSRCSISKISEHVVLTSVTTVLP
# [2] = system: CHO-K1; experiment: (§1) Counterscreen for antagonists of the orexin 1 receptor (OX1R; HCRTR1): Homogeneous time resolved fluorescence (HTRF)-based cell-based dose response assay to identify antagonists of the parental CHO-K1 cell line. [Related pubchem assays (depositor defined):AID434989, AID435008, AID463079, AID485270, AID492963, AID492964, AID492965, AID493232, AID504699, AID504701]; format: functional; conditions: Cricetulus griseus
# [3] = target: T2, Orexin receptor type 2 (Homo sapiens, UniProt O43614); experiment: Counterscreen assay for antagonists of the orexin 1 receptor (OX1R; HCRTR1): Homogeneous Time Resolved Fluorescence (HTRF)-based cell-based dose response assay for antagonists of the orexin 2 receptor (OX2R; HCRTR2), run by assay provider.; format: functional
# T2 sequence (O43614 whole entry): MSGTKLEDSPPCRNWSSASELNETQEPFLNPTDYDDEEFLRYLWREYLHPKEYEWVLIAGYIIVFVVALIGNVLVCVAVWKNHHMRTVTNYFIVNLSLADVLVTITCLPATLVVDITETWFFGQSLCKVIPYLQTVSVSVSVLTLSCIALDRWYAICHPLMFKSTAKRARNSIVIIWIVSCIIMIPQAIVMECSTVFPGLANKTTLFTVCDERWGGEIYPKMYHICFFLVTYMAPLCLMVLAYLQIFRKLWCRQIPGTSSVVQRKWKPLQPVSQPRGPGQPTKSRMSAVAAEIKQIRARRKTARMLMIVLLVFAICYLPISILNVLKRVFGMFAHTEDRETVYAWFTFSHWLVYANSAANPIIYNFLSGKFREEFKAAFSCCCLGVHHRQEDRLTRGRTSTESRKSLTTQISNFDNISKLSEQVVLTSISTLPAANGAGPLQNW
# [4] = target: T1, Orexin/Hypocretin receptor type 1; experiment: Fluorescence-based cell-based high throughput dose response assay for antagonists of the orexin 1 receptor (OX1R; HCRTR1). [Related pubchem assays (depositor defined):AID434989, AID435008, AID463079, AID485270, AID492963, AID492964, AID492965, AID493232, AID504717, AID504718]; format: functional
# [5] = as §1, with “Fluorescence-based” for “Homogeneous time resolved fluorescence (HTRF)-based”, “cell-based high throughput” for “cell-based”, “CHO” for “CHO-K1”; format: functional
# [6] = target: T2, Orexin receptor type 2; experiment: Counterscreen assay for antagonists of the orexin 1 receptor (OX1R; HCRTR1): Fluorescence-based cell-based dose response assay for antagonists of the orexin 2 receptor (OX2R; HCRTR2), run by assay provider.; format: functional
# [7] = target: Tyrosine-protein kinase JAK3 (Homo sapiens, UniProt P52333); format: functional
# Sequence of Tyrosine-protein kinase JAK3 (P52333 whole entry): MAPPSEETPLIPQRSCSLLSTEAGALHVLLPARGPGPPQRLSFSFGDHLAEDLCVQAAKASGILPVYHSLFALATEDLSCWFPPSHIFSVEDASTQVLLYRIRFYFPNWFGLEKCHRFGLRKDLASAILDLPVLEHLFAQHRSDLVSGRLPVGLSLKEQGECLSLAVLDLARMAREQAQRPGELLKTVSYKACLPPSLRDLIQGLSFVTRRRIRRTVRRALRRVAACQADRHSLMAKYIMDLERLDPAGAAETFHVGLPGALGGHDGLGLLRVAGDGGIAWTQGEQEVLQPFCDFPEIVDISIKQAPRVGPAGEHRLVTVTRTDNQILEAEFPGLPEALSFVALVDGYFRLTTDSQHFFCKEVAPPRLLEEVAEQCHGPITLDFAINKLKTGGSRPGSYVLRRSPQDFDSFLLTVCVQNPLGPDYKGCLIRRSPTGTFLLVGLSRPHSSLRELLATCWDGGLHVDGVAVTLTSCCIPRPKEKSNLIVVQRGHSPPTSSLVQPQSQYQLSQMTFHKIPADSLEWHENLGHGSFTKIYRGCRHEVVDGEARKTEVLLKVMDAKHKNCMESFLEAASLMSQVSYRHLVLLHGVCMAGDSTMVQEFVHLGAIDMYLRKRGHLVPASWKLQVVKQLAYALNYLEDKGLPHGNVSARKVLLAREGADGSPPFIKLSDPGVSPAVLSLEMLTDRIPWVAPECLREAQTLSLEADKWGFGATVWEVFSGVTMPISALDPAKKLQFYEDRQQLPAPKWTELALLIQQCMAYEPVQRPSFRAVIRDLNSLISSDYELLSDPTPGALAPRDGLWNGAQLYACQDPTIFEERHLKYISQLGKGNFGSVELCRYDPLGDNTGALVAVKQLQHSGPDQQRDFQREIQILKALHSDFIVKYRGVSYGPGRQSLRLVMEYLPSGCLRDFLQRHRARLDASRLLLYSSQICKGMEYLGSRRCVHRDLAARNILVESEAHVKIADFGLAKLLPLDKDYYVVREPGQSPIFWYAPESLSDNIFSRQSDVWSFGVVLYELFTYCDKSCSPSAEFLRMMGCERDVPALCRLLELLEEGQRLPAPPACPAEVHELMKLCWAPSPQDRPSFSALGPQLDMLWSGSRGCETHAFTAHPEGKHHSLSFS
# [8] = target: Aurora kinase A (Homo sapiens, UniProt O14965); format: functional;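 also: value from the Navigating the Kinome kinase panel profiling, panel entry STK6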
# Sequence of Aurora kinase A (O14965 whole entry): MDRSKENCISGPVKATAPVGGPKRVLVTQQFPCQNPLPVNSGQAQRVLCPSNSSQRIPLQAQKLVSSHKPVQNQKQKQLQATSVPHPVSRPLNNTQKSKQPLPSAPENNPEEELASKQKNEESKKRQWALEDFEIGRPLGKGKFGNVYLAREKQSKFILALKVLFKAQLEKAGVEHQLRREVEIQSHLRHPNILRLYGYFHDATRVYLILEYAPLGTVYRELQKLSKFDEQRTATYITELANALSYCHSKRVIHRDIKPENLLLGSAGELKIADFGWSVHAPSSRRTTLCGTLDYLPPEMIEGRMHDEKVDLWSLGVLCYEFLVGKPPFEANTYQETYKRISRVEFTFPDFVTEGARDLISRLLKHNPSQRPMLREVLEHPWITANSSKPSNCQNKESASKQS
# [9] = target: ALK tyrosine kinase receptor (Homo sapiens, UniProt Q9UM73); format: functional;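 also: ALK tested as one member of a kinase panel screen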
# [10] = target: Dual specificity protein kinase CLK2 (Homo sapiens, UniProt P49760); format: functional
# [11] = target: G protein-coupled receptor kinase 5 (Homo sapiens, UniProt P34947); experiment: Navigating the Kinome. Panel member name: GPRK5; format: functional
# Sequence of G protein-coupled receptor kinase 5 (P34947 whole entry): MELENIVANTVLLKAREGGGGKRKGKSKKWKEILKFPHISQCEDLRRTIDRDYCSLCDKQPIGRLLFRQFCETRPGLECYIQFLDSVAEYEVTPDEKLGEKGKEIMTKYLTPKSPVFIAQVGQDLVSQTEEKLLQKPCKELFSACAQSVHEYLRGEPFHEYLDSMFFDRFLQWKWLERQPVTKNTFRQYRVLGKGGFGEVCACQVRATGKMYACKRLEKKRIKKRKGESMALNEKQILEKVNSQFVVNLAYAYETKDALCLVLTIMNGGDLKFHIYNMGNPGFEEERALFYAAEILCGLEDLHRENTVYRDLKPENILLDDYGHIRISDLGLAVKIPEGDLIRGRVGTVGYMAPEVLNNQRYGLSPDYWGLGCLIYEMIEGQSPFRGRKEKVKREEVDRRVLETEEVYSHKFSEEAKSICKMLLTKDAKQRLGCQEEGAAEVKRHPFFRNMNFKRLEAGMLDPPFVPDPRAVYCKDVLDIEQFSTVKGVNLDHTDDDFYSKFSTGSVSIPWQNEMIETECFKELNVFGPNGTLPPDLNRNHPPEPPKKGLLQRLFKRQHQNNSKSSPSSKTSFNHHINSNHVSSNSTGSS
# [12] = target: DNA (cytosine-5)-methyltransferase 1 (Homo sapiens, UniProt P26358); experiment: DNMT1 methyltransferase inhibitors, confirmation, biochemical, fluorescent molecular beacon (AID 602386); format: functional
# Sequence of DNA (cytosine-5)-methyltransferase 1 (P26358 whole entry): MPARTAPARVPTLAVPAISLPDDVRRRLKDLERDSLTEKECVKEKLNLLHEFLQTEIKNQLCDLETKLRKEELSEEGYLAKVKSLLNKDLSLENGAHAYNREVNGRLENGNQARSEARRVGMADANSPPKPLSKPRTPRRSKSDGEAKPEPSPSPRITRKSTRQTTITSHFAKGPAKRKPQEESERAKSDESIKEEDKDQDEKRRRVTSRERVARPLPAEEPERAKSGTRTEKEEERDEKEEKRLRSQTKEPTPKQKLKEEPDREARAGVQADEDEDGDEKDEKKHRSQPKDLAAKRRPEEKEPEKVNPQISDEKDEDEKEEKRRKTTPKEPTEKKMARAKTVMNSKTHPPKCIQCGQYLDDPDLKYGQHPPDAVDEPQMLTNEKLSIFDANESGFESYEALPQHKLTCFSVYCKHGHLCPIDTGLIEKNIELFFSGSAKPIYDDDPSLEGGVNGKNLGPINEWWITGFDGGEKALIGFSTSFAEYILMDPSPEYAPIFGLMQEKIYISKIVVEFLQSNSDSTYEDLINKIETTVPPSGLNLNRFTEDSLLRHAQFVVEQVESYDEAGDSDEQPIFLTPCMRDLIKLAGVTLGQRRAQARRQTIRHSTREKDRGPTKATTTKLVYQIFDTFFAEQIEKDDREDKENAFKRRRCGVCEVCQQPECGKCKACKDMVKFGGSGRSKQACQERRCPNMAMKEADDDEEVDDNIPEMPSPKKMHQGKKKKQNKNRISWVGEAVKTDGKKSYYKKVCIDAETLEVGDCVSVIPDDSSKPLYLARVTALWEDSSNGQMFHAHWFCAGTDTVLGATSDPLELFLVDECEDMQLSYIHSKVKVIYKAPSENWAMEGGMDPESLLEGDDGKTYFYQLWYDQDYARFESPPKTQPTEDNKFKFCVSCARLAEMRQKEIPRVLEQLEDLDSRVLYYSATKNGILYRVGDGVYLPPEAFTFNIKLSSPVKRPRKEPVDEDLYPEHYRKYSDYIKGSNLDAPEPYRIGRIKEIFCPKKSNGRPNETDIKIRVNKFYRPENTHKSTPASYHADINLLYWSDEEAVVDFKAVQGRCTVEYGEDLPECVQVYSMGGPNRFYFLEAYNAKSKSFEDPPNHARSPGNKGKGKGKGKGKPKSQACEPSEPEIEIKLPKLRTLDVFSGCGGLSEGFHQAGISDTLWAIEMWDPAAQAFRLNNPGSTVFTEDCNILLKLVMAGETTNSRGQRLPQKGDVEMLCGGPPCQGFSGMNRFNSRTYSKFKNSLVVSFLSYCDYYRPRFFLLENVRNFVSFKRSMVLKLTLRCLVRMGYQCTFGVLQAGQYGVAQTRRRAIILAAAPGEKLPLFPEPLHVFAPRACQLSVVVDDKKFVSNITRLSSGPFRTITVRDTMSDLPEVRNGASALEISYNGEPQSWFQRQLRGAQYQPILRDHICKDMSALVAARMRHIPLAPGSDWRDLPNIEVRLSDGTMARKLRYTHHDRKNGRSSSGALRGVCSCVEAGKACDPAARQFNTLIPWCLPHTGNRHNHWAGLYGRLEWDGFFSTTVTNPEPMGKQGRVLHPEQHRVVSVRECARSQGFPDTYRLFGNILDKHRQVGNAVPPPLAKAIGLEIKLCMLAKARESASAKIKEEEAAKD
# [13] = target: Mitochondrial peptide methionine sulfoxide reductase (Bos taurus, UniProt P54149); format: functional;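 also: absorbance read-out, biochemical high-throughput dose-response screen for MsrA inhibitors, confirmatory; recombinant bovine MsrA coupled to E. coli TrxB with NADPH and selenocystamine; potency is for inhibitors of MsrA activity on DMSO substrate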
# Sequence of Mitochondrial peptide methionine sulfoxide reductase (P54149 whole entry): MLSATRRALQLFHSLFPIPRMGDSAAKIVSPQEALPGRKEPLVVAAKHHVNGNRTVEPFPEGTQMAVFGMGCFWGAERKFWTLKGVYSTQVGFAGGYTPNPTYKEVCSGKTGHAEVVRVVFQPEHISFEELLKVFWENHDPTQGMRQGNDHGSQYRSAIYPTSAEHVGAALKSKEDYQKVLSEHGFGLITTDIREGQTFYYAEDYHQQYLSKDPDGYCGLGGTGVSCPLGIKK
# [14] = nonselective inhibitors of cellular cAMP signaling, dose response, counter-screen for MC4R biased antagonist project, cell-based, TR-FRET cAMP detection (AID 602305); format: functional;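 also: U2OS cells stimulated with forskolin near its EC80 as the cAMP inducer; potency is for inhibition of forskolin-stimulated cAMP signaling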
# [15] = target: Melanocortin receptor 4 (Homo sapiens, UniProt P32245); experiment: MC4R antagonist potency on cAMP, dose response, cell-based, TR-FRET, biased antagonists (AID 602298); format: functional;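 also: antagonist potency against agonist-stimulated cAMP production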
# Sequence of Melanocortin receptor 4 (P32245 whole entry): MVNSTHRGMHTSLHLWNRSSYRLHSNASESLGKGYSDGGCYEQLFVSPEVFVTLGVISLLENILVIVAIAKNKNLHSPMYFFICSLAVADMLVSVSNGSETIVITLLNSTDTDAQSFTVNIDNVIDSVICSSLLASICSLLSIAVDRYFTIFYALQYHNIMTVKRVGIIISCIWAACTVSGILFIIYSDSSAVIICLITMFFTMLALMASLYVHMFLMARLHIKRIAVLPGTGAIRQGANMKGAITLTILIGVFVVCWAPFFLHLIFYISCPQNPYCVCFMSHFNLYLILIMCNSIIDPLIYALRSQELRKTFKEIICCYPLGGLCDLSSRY
# [16] = target: T3, Cysteine protease ATG4B (Homo sapiens, UniProt Q9Y4P1); format: functional;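 also: Fluorescence-based dose-response confirmation assay measuring inhibition of ATG4B activity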
# T3 sequence (Q9Y4P1 whole entry): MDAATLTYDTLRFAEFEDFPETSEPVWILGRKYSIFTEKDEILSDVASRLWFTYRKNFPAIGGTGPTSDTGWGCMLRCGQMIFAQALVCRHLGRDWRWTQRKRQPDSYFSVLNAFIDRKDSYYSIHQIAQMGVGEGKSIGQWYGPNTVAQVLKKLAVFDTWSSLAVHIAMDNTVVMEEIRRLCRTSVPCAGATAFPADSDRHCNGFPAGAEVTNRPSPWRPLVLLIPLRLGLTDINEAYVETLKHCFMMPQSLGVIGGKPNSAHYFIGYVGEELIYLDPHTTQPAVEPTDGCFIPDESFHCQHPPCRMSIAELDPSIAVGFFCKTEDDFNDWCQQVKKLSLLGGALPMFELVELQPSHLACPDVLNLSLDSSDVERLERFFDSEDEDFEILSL
# [17] = target: Phospholipase A2 (Homo sapiens, UniProt P04054); format: functional;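 also: confirmatory dose-response counterscreen on phospholipase A2, testing hits that came from an ultra-high-throughput screen for ATG4B inhibitors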
# Sequence of Phospholipase A2 (P04054 whole entry): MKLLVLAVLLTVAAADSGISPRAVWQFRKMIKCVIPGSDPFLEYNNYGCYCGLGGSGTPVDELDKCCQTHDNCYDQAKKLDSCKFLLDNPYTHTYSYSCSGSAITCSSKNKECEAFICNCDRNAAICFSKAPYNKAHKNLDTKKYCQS
# [18] = target: Genome polyprotein (dengue virus type 2, UniProt P29990); experiment: Dengue-2 NS5 methyltransferase inhibitors, primary screen, biochemical, confirmation dose response (AID 588689); format: functional
# [19] = target: T4, ORF 73 (Human herpesvirus 8, UniProt O40947); experiment: inhibitors of C-LANA binding to LBS DNA, dose response, biochemical, fluorescence polarization, cherry-picked samples (AID 504725); parameters: species or system Human gammaherpesvirus 8;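 also: fluorescence polarization of a labeled DNA duplex reporting LANA DNA binding; potency is for inhibitors that block LANA binding to the DNA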
# T4 sequence (O40947 whole entry): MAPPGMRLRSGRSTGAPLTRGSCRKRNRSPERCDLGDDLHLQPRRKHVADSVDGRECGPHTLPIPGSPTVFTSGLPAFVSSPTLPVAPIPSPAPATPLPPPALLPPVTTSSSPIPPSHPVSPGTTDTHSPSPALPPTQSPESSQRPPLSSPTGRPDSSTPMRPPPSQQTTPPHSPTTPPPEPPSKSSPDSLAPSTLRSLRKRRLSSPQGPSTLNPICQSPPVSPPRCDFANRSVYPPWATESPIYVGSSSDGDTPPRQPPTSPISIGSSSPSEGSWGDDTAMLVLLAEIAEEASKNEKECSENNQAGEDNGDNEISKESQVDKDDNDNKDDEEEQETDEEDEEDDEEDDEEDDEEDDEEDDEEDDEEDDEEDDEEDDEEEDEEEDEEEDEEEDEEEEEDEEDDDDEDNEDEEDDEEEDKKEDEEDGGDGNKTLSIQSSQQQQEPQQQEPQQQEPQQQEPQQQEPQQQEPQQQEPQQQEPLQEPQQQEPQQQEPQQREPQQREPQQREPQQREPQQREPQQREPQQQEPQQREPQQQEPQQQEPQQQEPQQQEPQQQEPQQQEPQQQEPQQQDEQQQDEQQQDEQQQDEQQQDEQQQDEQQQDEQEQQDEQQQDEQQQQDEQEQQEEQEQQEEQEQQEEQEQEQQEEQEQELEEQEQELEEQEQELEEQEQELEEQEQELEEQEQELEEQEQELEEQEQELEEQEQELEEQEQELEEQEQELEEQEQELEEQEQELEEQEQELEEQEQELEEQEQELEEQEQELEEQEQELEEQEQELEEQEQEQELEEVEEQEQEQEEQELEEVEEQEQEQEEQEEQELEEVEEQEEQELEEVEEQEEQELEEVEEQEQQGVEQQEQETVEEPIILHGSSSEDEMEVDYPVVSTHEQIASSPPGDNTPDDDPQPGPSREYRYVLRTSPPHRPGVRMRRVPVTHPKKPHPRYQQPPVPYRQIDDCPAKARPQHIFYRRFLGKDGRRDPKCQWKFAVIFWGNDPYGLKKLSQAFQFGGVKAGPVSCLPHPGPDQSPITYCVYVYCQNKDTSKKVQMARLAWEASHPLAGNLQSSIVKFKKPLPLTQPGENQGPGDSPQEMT
# [20] = target: T5, RNA-binding protein pos-1 (Caenorhabditis elegans, UniProt G5EF15); experiment: inhibitors of POS-1/mex-3 RNA binding, dose response, biochemical, fluorescence polarization (AID 1964);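 also: purified POS-1 fused to maltose binding protein made in E. coli; potency of compounds blocking POS-1 binding to fluorescent RNA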
# T5 sequence (G5EF15 whole entry): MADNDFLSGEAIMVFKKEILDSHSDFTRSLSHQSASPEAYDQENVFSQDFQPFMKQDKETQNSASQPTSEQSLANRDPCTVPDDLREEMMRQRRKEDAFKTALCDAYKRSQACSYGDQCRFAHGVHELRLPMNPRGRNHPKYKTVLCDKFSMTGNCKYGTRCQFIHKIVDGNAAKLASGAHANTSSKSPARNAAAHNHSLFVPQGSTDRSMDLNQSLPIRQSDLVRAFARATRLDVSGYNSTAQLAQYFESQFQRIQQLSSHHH
# [21] = target: 72 kDa type IV collagenase (Homo sapiens, UniProt P08253); experiment: Dose Response validation of uHTS RPN11 inhibitor hits using a MMP-2 Fluorescence assay.; format: functional
# [22] = target: Prothrombin (Bos taurus, UniProt P00735); experiment: thrombin inhibition, dose response, biochemical, fluorescence polarization, uHTS hits (AID 602369); format: functional
# [23] = target: T6, Small ubiquitin-related modifier 1 (Homo sapiens, UniProt P63165); experiment: inhibitors of SUMO1 peptide binding, dose response, biochemical, fluorescence polarization, uHTS hits (AID 624382); format: functional; conditions: read-out: IC50_Mean
# T6 sequence (P63165 whole entry): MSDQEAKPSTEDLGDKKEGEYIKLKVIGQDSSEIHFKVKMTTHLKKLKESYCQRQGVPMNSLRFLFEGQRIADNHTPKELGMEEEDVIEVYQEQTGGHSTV
# [24] = target: 26S proteasome non-ATPase regulatory subunit 14 (Homo sapiens, UniProt O00487); experiment: inhibition of proteasome subunit RPN11 – biochemical, fluorescence polarization, uHTS hits, confirmation (AID 602368); format: functional
# Sequence of 26S proteasome non-ATPase regulatory subunit 14 (O00487 whole entry): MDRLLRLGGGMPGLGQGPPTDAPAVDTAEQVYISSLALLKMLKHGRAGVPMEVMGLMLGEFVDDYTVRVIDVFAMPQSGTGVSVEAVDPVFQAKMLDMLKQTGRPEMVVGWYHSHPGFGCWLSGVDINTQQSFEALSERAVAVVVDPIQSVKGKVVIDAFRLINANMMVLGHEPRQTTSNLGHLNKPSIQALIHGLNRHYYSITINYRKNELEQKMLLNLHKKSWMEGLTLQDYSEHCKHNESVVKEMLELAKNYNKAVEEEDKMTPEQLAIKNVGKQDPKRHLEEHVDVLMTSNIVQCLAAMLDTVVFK
# [25] = target: T7, Zinc finger protein mex-5 (Caenorhabditis elegans, UniProt Q9XUB2); experiment: MEX-5/TCR-2 RNA interaction inhibitors, dose response, biochemical, C. elegans, fluorescence polarization (AID 1960)
# T7 sequence (Q9XUB2 whole entry): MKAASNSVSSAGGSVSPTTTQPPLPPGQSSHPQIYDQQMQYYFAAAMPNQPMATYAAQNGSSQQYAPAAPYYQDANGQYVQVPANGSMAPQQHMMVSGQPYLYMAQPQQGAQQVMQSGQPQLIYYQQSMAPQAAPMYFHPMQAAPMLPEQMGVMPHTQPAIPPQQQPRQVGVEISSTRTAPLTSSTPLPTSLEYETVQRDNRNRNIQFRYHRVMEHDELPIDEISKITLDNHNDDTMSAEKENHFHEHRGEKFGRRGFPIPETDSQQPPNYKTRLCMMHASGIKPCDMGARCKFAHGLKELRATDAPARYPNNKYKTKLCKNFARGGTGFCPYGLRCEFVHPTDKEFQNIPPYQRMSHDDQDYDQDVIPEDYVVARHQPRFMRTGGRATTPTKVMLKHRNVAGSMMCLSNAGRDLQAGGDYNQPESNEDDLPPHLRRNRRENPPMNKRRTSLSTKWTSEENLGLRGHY
# [26] = target: T6, Small ubiquitin-related modifier 1; experiment: inhibitors of SUMO1 partner interactions, dose response, biochemical, FRET (AID 624383); format: functional; conditions: read-out: IC50_Mean
# [27] = target: Large T antigen (Simian virus 40, UniProt P03070); format: functional, Betapolyomavirus macacae;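 also: Confirmatory-stage PubChem screen for compounds that inhibit SV40 T antigen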
smiles,measurement,setting,value
CCSC1=C(C#N)C(c2ccccc2Cl)C(C(=O)c2cccs2)C(O)(C(F)(F)F)N1 (stereo not drawn),IC50,[1],0.174 µM (active)
same,IC50,[2],> 66.2 µM (inactive)
same,IC50,[3],> 50 µM (inactive)
same,IC50,[4],0.878 µM (active)
same,IC50,[5],33.9 µM (inactive)
same,IC50,[6],20 µM (inactive)
CC(C)CC(NC(=O)c1cccc(-n2nc(C(C)(C)C)cc2NC(=O)Nc2cccc3ccccc23)c1)C(N)=O (stereo not drawn),Ki,[7],5.01 µM (active)
Cc1cccc(NC(=O)Nc2ccc(-c3csc4c(-c5ccc(NC(=O)CCCN(C)C)cc5)cnc(N)c34)cc2)c1,Ki,[8],0.0501 µM (active)
same,Ki,[9],0.398 µM (active)
COc1cc2c(Nc3ccc(Br)cc3F)ncnc2cc1OCC1CCN(C)CC1 [VANDETANIB],Ki,[10],> 2 µM (inactive)
same,Ki,[11],> 3.98 µM (inactive)
CCOC(=O)C(NC(=O)CC(C)C)(Nc1sc2c(c1C(N)=O)CCCC2)C(F)(F)F (stereo not drawn),IC50,[12],> 99 µM (inactive)
CCOC(=O)C1=C(COC(=O)/C=C/c2cccc(OC)c2)NC(=O)NC1C (stereo not drawn),IC50,[1],8.33 µM (active)
same,IC50,[2],> 66.2 µM (inactive)
same,IC50,[3],> 50 µM (inactive)
same,IC50,[4],15.3 µM (inactive)
same,IC50,[5],> 49.8 µM (inactive)
same,IC50,[6],> 88.8 µM (inactive)
C/C(=N\Nc1ccc(C(F)(F)F)cc1[N+](=O)[O-])C1CC1,IC50,[13],155 µM (inactive)
COC(=O)c1sc(N)c(C(=O)OC)c1COC(=O)CNS(=O)(=O)c1ccc(C)c(C)c1,IC50,[14],> 64.6 µM (inactive)
same,IC50,[15],> 64.6 µM (inactive)
O=c1[nH]c(=S)[nH]c2c1C(c1ccc(Br)cc1)c1c([nH]c(=S)[nH]c1=O)O2,IC50,[16],2.96 µM (active)
same,IC50,[17],29.2 µM (inactive)
same,IC50,[18],73.7 µM (active)
same,AC50,[19],281 µM (active)
same,EC50,[20],4.86 µM (inconclusive)
same,IC50,[21],0.0169 µM (active)
same,IC50,[22],20.8 µM (active)
same,IC50,[23],> 66.6 µM (inactive)
same,IC50,[24],14.5 µM (active)
same,EC50,[25],4.53 µM (active)
same,IC50,[26],10.3 µM (active)
same,IC50,[27],21.4 µM (active)
